Key:
Recombinant human HDAC8 = molecular target: T1, Recombinant human HDAC8 (Homo sapiens, UniProt Q9BY41); experiment: HDAC-Glo I/II assay, HDAC8; type: biochemical; conditions: Class I HDAC; compounds reduced by TCEP prior to assay
T1 construct: purchased BPS Bioscience Inc
T1 sequence (Q9BY41 1-377): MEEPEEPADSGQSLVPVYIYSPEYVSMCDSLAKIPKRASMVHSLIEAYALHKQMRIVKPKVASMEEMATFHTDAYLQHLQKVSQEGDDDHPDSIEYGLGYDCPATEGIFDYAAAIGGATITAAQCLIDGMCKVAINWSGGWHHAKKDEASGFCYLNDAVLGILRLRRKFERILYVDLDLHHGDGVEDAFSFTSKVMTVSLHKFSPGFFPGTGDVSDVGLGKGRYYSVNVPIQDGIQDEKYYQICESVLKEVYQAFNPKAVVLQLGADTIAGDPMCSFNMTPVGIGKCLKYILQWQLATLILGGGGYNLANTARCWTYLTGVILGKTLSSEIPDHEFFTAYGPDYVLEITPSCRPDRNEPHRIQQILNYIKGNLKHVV
Protocol: The purified compounds of all fragments and natural product derivatives were evaluated for inhibitory effects on three different classes of HDAC proteins (class I, IIa, and IIb). […] All activity was determined by using a fluorescence-based in vitro assay. Class I HDAC proteins that were evaluated were HDAC1, HDAC2, HDAC3, HDAC8, HDAC4, and HDAC6. Class IIa HDAC protein were HDAC4 and the Class IIb HDAC protein were HDAC6.
HDAC-Glo™ I/II Assay and Screening System (Promega) was used to determine the HDAC inhibitory activity. Recombinant human HDAC1, HDAC2, HDAC3, HDAC4, HDAC6 and HDAC8 were purchased from BPS Bioscience Inc. The inhibitory activities of the test compounds against recombinant HDAC were performed according to reagent suppliers' protocols.
All test compounds were firstly dissolved in DMSO to make 10 mM stock solution. A certain amount of stock solution was diluted to 1 mM by DMSO and then reduced by tris(2-carboxyethyl)phosphine hydrochloride (TCEP) in a molar ration of 1:1.5 for 20 min at ambient temperature prior to being assayed. After reduction, a series of fivefold dilutions of each reduced compound were prepared with HDAC-Glo buffer and 25 μL of each dilution was added into a well on a 96-well plate. HDAC enzymes were diluted to the desired concentrations with HDAC-Glo buffer and 25 μL of each diluted enzyme was dispensed into a well to mix with 25 μL of testing compound at room temperature for 30-60 seconds. After the reaction mixture had been incubated at room temperature for 1 hour, 50 μL of HDAC-Glo reagent was added to each reaction well and mixed up for 30-60 seconds. Finally, the plate was incubated at room temperature for an additional 30 minutes before the luminescence was measured on a Synergy HT plate reader (Bio-Tek). The luminescence intensity data were analyzed using GraphPad Prism 5 (GraphPad Software). In the absence of any test compound, the luminescence intensity (I100) in each data set was defined as 100% activity. In the absence of both of HDAC enzymes and test compound, the luminescence intensity (I0) in each data set was defined as 0% activity. The relative activity (%) in the presence of each compound was calculated according to the following equation: % activity=(I−I0)/(I100−I0), where I=the luminescence intensity if a compound is present in the reaction. Experiments were performed in triplicate and the calculated mean values were used for plotting.

COLO-205 (colon cancer) = experiment: MTT antiproliferative assay, COLO-205; type: cell-based; conditions: Homo sapiens, COLO 205; MTT, 48 h; read-out: Antiproliferative Activity GI50, Colon COLO-205
Protocol: (§1) Briefly, the tumor cells (1×10^4 cells/well) were seeded in 96-well microtiter plates and incubated for 24 h at 37° C. Following incubation, the media was replaced with fresh media containing the above compounds at concentrations ranging from 1 μM to 1 pM diluted in DMSO and incubated for an additional 48 h. Drugs were run in duplicate or triplicate and control cells received fresh media with DMSO concentration equivalent to the treatment groups. […] After aspirating the culture medium, 200 μL of DMSO was added to dissolve the precipitate and the resulting solution was measured for absorbance at 570 nm with a reference wavelength of 690 nm using a microplate reader (Infinite M200 Pro TECAN).

SKOV-3 (ovarian) = experiment: MTT antiproliferative assay, SKOV-3; type: cell-based; conditions: Homo sapiens, SK-OV-3; MTT, 48 h; read-out: Antiproliferative Activity GI50, Ovarian SKOV-3
Protocol: as §1

[1] = test system: MDA-MB-231 (breast cancer); experiment: MTT antiproliferative assay, MDA-MB-231; type: cell-based; conditions: Homo sapiens, MDA-MB-231; MTT, 48 h; read-out: Antiproliferative Activity GI50, Breast MDA-MB-231
Protocol: as §1

BALB/c mice = experiment: in vivo; conditions: BALB/c, mouse, in vivo, ip, 2 weeks
DU-145 (prostate cancer) = experiment: MTT antiproliferative assay, DU-145; type: cell-based; conditions: Homo sapiens, DU-145; MTT, 48 h; read-out: Antiproliferative Activity GI50, Prostate DU-145
Protocol: as §1

Row | Structure (SMILES) | IC50 (Recombinant human HDAC8) [nM] | GI50 (COLO-205 (colon cancer)) [nM] | GI50 (SKOV-3 (ovarian)) [nM] | GI50 [1] [nM] | MTD (toxicity in healthy BALB/c mice) (BALB/c mice) [mg/kg] | GI50 (DU-145 (prostate cancer)) [nM]
1 | CSCC[C@H]1NC(=O)CC(O)/C=C/CCSSC[C@H](C(=O)O)NC1=O (stereo partly drawn) [TDF3, (4S,7R,12E)-11-hydroxy-7-[2-(methylsulfanyl)ethyl]-6,9-dioxo-1,2-dithia-5,8-diazacyclopentadec-12-ene-4-carboxylic acid] | 62800 | – | – | – | – | –
2 | COC(=O)[C@H]1CSSCC/C=C/C(O)CC(=O)N[C@H](CCSC)C(=O)N1 (stereo partly drawn) [TDF3m, Methyl (4S,7R,12E)-11-hydroxy-7-[2-(methylsulfanyl)ethyl]-6,9-dioxo-1,2-dithia-5,8-diazacyclopentadec-12-ene-4-carboxylate] | 63000 | 900 | 500 | 600 | >200 | 300

From patent US11149062B2, “HDAC inhibitors and methods of treatment using the same” (UWM Research Foundation, Inc., priority 2015, dated 2021)
